Species on record: Rattus norvegicus
Assay: Open TG-GATES - Regimen: Daily Repeat
Type: toxicity, organism-based, Sprague-Dawley
Parameters: regimen Daily Repeat, gender Male, age 6 weeks
Conditions: in vivo, po, route gavage; for Bas / Eos / Fbg / Ht / MCHC / Mono / Plat / RBC / Ret / WBC / MCV: tissue Blood; for KIDNEY_L / KIDNEY_R / KIDNEY_TOTAL: tissue Kidney; for ALT / AST / CRE / DBIL / GLC / IP / K / LDH / PL / RALB / TBIL / TC / TG / TP / gamma-GTP: tissue Plasma
[1] = 100 mg/kg, 72 h, dose level Middle, time 3 day
[2] = 100 mg/kg, […], dose level Middle, time 7 day
[3] = 100 mg/kg, […], dose level Middle, time 14 day
[4] = 100 mg/kg, […], dose level Middle, time 28 day
[5] = 1000 mg/kg, 72 h, dose level High, time 3 day
[6] = 1000 mg/kg, […], dose level High, time 7 day
[7] = 1000 mg/kg, […], dose level High, time 14 day
[8] = 1000 mg/kg, […], dose level High, time 28 day

CC(C)OC(=O)C(C)(C)Oc1ccc(C(=O)c2ccc(Cl)cc2)cc1 [FENOFIBRATE]
TERMINAL_BW [1]: 219 g | Bas [1]: 0.2% | Eos [1]: 1% | Fbg [1]: 242.4 mg/dL | Ht [1]: 40.5% | MCHC [1]: 32.9% | Mono [1]: 3.4% | Plat [1]: 110.8 x10_4/uL | RBC [1]: 619.6 x10_4/ul | Ret [1]: 6.7% | WBC [1]: 92.3 x10_2/uL | KIDNEY_L [1]: 1 g | KIDNEY_R [1]: 1 g | KIDNEY_TOTAL [1]: 1.9 g | ALT [1]: 52 IU/L | AST [1]: 77.6 IU/L | CRE [1]: 0.2 mg/dL | DBIL [1]: 0.012 mg/dL | GLC [1]: 184.2 mg/dL | IP [1]: 7.5 mg/dL | K [1]: 4.1 meq/L | LDH [1]: 90 IU/L | PL [1]: 118.6 mg/dL | RALB [1]: 2.6 g/dL | TBIL [1]: 0.034 mg/dL | TC [1]: 58.6 mg/dL | TG [1]: 41.6 mg/dL | TP [1]: 5.5 g/dL | gamma-GTP [1]: 1.2 IU/L | TERMINAL_BW [2]: 251.5 g | TERMINAL_BW [3]: 311 g | TERMINAL_BW [4]: 352.5 g | Bas [2]: 0.2% | Eos [2]: 1% | Fbg [2]: 232.2 mg/dL | Ht [2]: 40.3% | MCHC [2]: 32.4% | Mono [2]: 4% | Plat [2]: 127.1 x10_4/uL | RBC [2]: 650.8 x10_4/ul | Ret [2]: 5.7% | WBC [2]: 98.5 x10_2/uL | Bas [3]: 0% | Eos [3]: 0.8% | Fbg [3]: 230 mg/dL | Ht [3]: 40.9% | MCHC [3]: 32.9% | Mono [3]: 3.2% | Plat [3]: 131.7 x10_4/uL | RBC [3]: 660.8 x10_4/ul | Ret [3]: 5.1% | WBC [3]: 106.3 x10_2/uL | Bas [4]: 0.8% | Eos [4]: 1.2% | Fbg [4]: 207.2 mg/dL | Ht [4]: 44.3% | MCHC [4]: 33.6% | MCV [4]: 56.8 fL | Mono [4]: 3.2% | Plat [4]: 107.6 x10_4/uL | RBC [4]: 780.8 x10_4/ul | Ret [4]: 2.4% | WBC [4]: 148.1 x10_2/uL | KIDNEY_L [2]: 1.1 g | KIDNEY_R [2]: 1.1 g | KIDNEY_TOTAL [2]: 2.2 g | KIDNEY_L [3]: 1.3 g | KIDNEY_R [3]: 1.3 g | KIDNEY_TOTAL [3]: 2.6 g | KIDNEY_L [4]: 1.4 g | KIDNEY_R [4]: 1.4 g | KIDNEY_TOTAL [4]: 2.8 g | ALT [2]: 41.2 IU/L | AST [2]: 67.8 IU/L | CRE [2]: 0.2 mg/dL | DBIL [2]: 0.012 mg/dL | GLC [2]: 186.8 mg/dL | IP [2]: 8 mg/dL | K [2]: 4.3 meq/L | LDH [2]: 126.2 IU/L | PL [2]: 119.8 mg/dL | RALB [2]: 2.8 g/dL | TBIL [2]: 0.028 mg/dL | TC [2]: 55.6 mg/dL | TG [2]: 47.4 mg/dL | TP [2]: 5.9 g/dL | gamma-GTP [2]: 1 IU/L | ALT [3]: 43 IU/L | AST [3]: 69 IU/L | CRE [3]: 0.2 mg/dL | DBIL [3]: 0.014 mg/dL | GLC [3]: 192.8 mg/dL | IP [3]: 6.9 mg/dL | K [3]: 4.1 meq/L | LDH [3]: 106.8 IU/L | PL [3]: 135.2 mg/dL | RALB [3]: 2.8 g/dL | TBIL [3]: 0.026 mg/dL | TC [3]: 57.8 mg/dL | TG [3]: 78 mg/dL | TP [3]: 6 g/dL | gamma-GTP [3]: 1 IU/L | ALT [4]: 47.6 IU/L | AST [4]: 69.2 IU/L | CRE [4]: 0.2 mg/dL | DBIL [4]: 0.016 mg/dL | GLC [4]: 179 mg/dL | IP [4]: 7.6 mg/dL | K [4]: 3.8 meq/L | LDH [4]: 110.8 IU/L | PL [4]: 129.8 mg/dL | RALB [4]: 3 g/dL | TBIL [4]: 0.036 mg/dL | TC [4]: 55 mg/dL | TG [4]: 60.2 mg/dL | TP [4]: 6.5 g/dL | gamma-GTP [4]: 1.2 IU/L | TERMINAL_BW [5]: 215.9 g | Bas [5]: 0.4% | Eos [5]: 1% | Fbg [5]: 208.2 mg/dL | Ht [5]: 39.5% | MCHC [5]: 33% | Mono [5]: 3.6% | Plat [5]: 105.8 x10_4/uL | RBC [5]: 610.6 x10_4/ul | Ret [5]: 5.6% | WBC [5]: 91.7 x10_2/uL | KIDNEY_L [5]: 0.9 g | KIDNEY_R [5]: 1 g | KIDNEY_TOTAL [5]: 1.9 g | ALT [5]: 51.4 IU/L | AST [5]: 83.8 IU/L | CRE [5]: 0.2 mg/dL | DBIL [5]: 0.022 mg/dL | GLC [5]: 176.8 mg/dL | IP [5]: 7.3 mg/dL | K [5]: 4.3 meq/L | LDH [5]: 105.8 IU/L | PL [5]: 129.2 mg/dL | RALB [5]: 2.6 g/dL | TBIL [5]: 0.048 mg/dL | TC [5]: 57 mg/dL | TG [5]: 33.6 mg/dL | TP [5]: 5.4 g/dL | gamma-GTP [5]: 1 IU/L | TERMINAL_BW [6]: 248.7 g | TERMINAL_BW [7]: 269.5 g | TERMINAL_BW [8]: 320.8 g | Bas [6]: 0% | Eos [6]: 1% | Fbg [6]: 222.2 mg/dL | Ht [6]: 39.1% | MCHC [6]: 32.3% | Mono [6]: 3.4% | Plat [6]: 147.3 x10_4/uL | RBC [6]: 612.2 x10_4/ul | Ret [6]: 5.8% | WBC [6]: 113.4 x10_2/uL | Bas [7]: 0.4% | Eos [7]: 1% | Fbg [7]: 192.8 mg/dL | Ht [7]: 39.9% | MCHC [7]: 33.3% | MCV [7]: 58.7 fL | Mono [7]: 3.4% | Plat [7]: 135.5 x10_4/uL | RBC [7]: 679.4 x10_4/ul | Ret [7]: 5.1% | WBC [7]: 149.7 x10_2/uL | Bas [8]: 0.4% | Eos [8]: 1.2% | Fbg [8]: 194.2 mg/dL | Ht [8]: 40.9% | MCHC [8]: 33.4% | MCV [8]: 57.2 fL | Mono [8]: 3.4% | Plat [8]: 117.4 x10_4/uL | RBC [8]: 716 x10_4/ul | Ret [8]: 3.9% | WBC [8]: 132.1 x10_2/uL | KIDNEY_L [6]: 1.1 g | KIDNEY_R [6]: 1.1 g | KIDNEY_TOTAL [6]: 2.2 g | KIDNEY_L [7]: 1.2 g | KIDNEY_R [7]: 1.2 g | KIDNEY_TOTAL [7]: 2.4 g | KIDNEY_L [8]: 1.4 g | KIDNEY_R [8]: 1.4 g | KIDNEY_TOTAL [8]: 2.8 g | ALT [6]: 45.8 IU/L | AST [6]: 80.6 IU/L | CRE [6]: 0.2 mg/dL | DBIL [6]: 0.018 mg/dL | GLC [6]: 178.8 mg/dL | IP [6]: 7.4 mg/dL | K [6]: 4.4 meq/L | LDH [6]: 122.6 IU/L | PL [6]: 142 mg/dL | RALB [6]: 3 g/dL | TBIL [6]: 0.034 mg/dL | TC [6]: 65.8 mg/dL | TG [6]: 38 mg/dL | TP [6]: 6.1 g/dL | gamma-GTP [6]: 1 IU/L | ALT [7]: 70 IU/L | AST [7]: 160.6 IU/L | CRE [7]: 0.2 mg/dL | DBIL [7]: 0.022 mg/dL | GLC [7]: 170.2 mg/dL | IP [7]: 6.6 mg/dL | K [7]: 4.1 meq/L | LDH [7]: 226.2 IU/L | PL [7]: 138 mg/dL | RALB [7]: 2.9 g/dL | TBIL [7]: 0.052 mg/dL | TC [7]: 50.6 mg/dL | TG [7]: 45.4 mg/dL | TP [7]: 6 g/dL | gamma-GTP [7]: 1 IU/L | ALT [8]: 55.8 IU/L | AST [8]: 132 IU/L | CRE [8]: 0.2 mg/dL | DBIL [8]: 0.024 mg/dL | GLC [8]: 176 mg/dL | IP [8]: 7.3 mg/dL | K [8]: 3.7 meq/L | LDH [8]: 205.2 IU/L | PL [8]: 139.8 mg/dL | RALB [8]: 2.9 g/dL | TBIL [8]: 0.06 mg/dL | TC [8]: 62.4 mg/dL | TG [8]: 47.6 mg/dL | TP [8]: 6.2 g/dL | gamma-GTP [8]: 1.2 IU/L

Reference: ChEMBL document CHEMBL3885861, “Open TG-GATES”
